Results on 2 molecules are retold here after patent publication US20130274342A1, “COMPOSITIONS AND METHODS FOR TREATING COUGH” (Cerecor, Inc., priority 2012, published 2013).

Series [1] can be described thus: Pharmacokinetic evaluation of memantine with sodium hydroxide, menthol and optionally NH4Cl in male beagle dogs (Example 2). The series is classed as in vivo. The settings on record: 0.4 mg/kg, Route Oral. How it is done:
The pharmacokinetics of memantine were evaluated after buccal administration in male beagle dogs. Memantine was formulated in water, 3.3 mg/mL sodium hydroxide in water, or 7.5 mg/mL sodium carbonate in water. All dogs received a 0.4 mg/kg dose of memantine. Plasma levels of memantine were determined by LC-MS/MS. Pharmacokinetic parameters were determined for the memantine plasma data.
For dosing, dogs were anesthetized with an IV injection of ketamine/diazepam, and maintained by isoflurane intubation during the buccal administration. The dosing solution was pipetted into a circular cylinder to concentrate the dosing solution on one area of the mucosa. At just prior to the 15 minute sample time point, the oral cavity was rinsed with 5 mL of water and dried with gauze. Immediately after the rinse, the 15 minute sample was collected.
The pharmacokinetics of memantine were evaluated after buccal administration in male beagle dogs using procedures similar to those used in Example 1, except that menthol or menthol and ammonium chloride where co-administered with the sodium hydroxide (Table 2). Table 2 provides a summary of pharmacokinetic findings, comparing memantine compositions containing an alkalinizing agent to increase local pH and a permeation enhancer (menthol), and optionally a urinary acidifying agent. […] Further addition of a urinary acidifying agent (e.g., NH4Cl) further reduces T1/2, indicating more rapid elimination of memantine.

The conditions of series [2]: cited from earlier work.
Series [3] is described as follows: Stability of memantine in alkaline conditions, solution and lozenge (Example 5). Type of series: physicochemical. How it is done:
The stability of memantine is studied within a pH range in both solution and in a lozenge dosage form. It is determined that when memantine is included in a buffer solution at a pH 8.0 or higher, memantine degrades and/or precipitates out of solution. It is determined that in a solution with a pH of 8.0, only about 85.3 percent of memantine is recovered; in a solution with a pH of 9.0, only about 29.8 percent of memantine is recovered; and in a solution with a pH of 10.0, only about 0.7 percent of memantine is recovered. In a solution with a pH of 1.0, it is determined that 97.6 percent of memantine is recovered and thus memantine is determined to be stable. It is also determined that memantine is unstable in a lozenge dosage form when it is in contact with an alkalinizing agent. It is determined that when memantine and sodium hydroxide are added together in a lozenge dosage form, only about 40% to about 60% memantine is recovered, with the remaining memantine degrading and/or precipitating out during the lozenge preparation process. It is determined that when memantine and sodium carbonate are added together in a lozenge dosage form, only about 40% to about 60% memantine is recovered, with the remaining memantine degrading and/or precipitating out during the lozenge preparation process.

Another series relates to Caco-2 cells. The experiment in a line: Memantine in vitro intestinal permeability (Caco-2 cells). Type of series: in vitro ADME. (Passage across Caco-2 layers is used to estimate intestinal permeability.)
The conditions of series [4]: absorption limited to the distal small bowel; cited from earlier work.
Series [5] deals with citric acid-induced cough. Kind of series: Citric acid-induced cough in guinea pigs, oral memantine vs vehicle. Type of series: in vivo. The settings on record: oral administration, dose response (FIG. 2).
Series [6] is described as follows: Memantine ex vivo buccal permeability (porcine buccal mucosa). The series is classed as in vitro ADME.

For `CC12CC3CC(C)(C1)CC(N)(C3)C2` [memantine, 3,5-dimethyl-1-adamantanamine], the “AUC0-∞” value in series [1] (3.3 mg/ml sodium hydroxide + 5 mg/ml menthol) came out at 126 ng·h/mL. Moreover, the Cmax/Dose in series [1] (3.3 mg/ml sodium hydroxide + 5 mg/ml menthol + 20 mg/kg NH4Cl) was determined as 26.03. The AUC0-t in series [1] (Control) was determined as 120 ng·h/mL. Further, the “dissociation constant (pKa)” value in series [2] was around 10. Further, the memantine recovered is 97.6% in series [3] (solution with a pH of 1.0), “about 85.3%” in series [3] (solution with a pH of 8.0), “about 29.8%” in series [3] (solution with a pH of 9.0) and “about 0.7%” in series [3] (solution with a pH of 10.0). The “permeability of memantine in Caco-2 cells” value in the series on Caco-2 cells (increase in pH from pH 5.0 to 10.5 (FIG. 3)) was “gradually increases”. The “time to maximum plasma concentration (Tmax)” value in series [4] was 4 to 7 h. Further, the “efficacy on citric acid-induced cough relative to vehicle control” value in series [5] is reported as “dose-dependent antitussive effects”. Further, the results for the “increase in permeability of memantine in porcine buccal mucosa” value in series [6] (increase in pH from 5.5 to 9.0 (FIG. 4)) and in series [6] (increase in pH from 8.0 to 9.0 (FIG. 5)) were “over 100 fold” and “about 3.8 fold”, respectively.
With polysorbate 80, the “effect as permeation enhancer on memantine Caco-2 permeability” value in the series with Caco-2 cells (FIG. 6) is “ineffective”.
